Laboratory results taken from article PMC7297664 (2020).

How the values were obtained:
[1] = system: RNA 11 (8-oxoG at G26) (RNA, aptamer, 7,8-dihydro-8-oxoguanosine at 26) GGCGAUACCAGCCGAAAGGCCCUUGGCAGCGUC; assay: MST binding check; details: Na+ 150 mM (NaCl), 10 nM RNA
[2] = system: RNA 12 (8-oxoG at G11) (RNA, aptamer, 7,8-dihydro-8-oxoguanosine at 11) GGCGAUACCAGCCGAAAGGCCCUUGGCAGCGUC; assay: MST binding check; details: Na+ 150 mM (NaCl), 10 nM RNA
[3] = system: RNA 10 (8-oxoG at G25) (RNA, aptamer, 7,8-dihydro-8-oxoguanosine at 25) GGCGAUACCAGCCGAAAGGCCCUUGGCAGCGUC; assay: microscale thermophoresis (MST); details: Na+ 150 mM (NaCl); TBS pH 7.5, up to 5% DMSO; up to 1 mM; incomplete curve, solubility; abstract gives ≈160 μM
[4] = system: RNA 9 (canonical theophylline aptamer, Cy5) (RNA, aptamer) GGCGAUACCAGCCGAAAGGCCCUUGGCAGCGUC; assay: MST binding check; details: Na+ 150 mM (NaCl), 10 nM RNA
[5] = system: RNA 9 (canonical theophylline aptamer, Cy5) (RNA, aptamer) GGCGAUACCAGCCGAAAGGCCCUUGGCAGCGUC; assay: microscale thermophoresis (MST); details: Na+ 150 mM (NaCl); TBS: 50 mM Tris-HCl pH 7.5; 10 nM RNA; incubated in ice
[6] = system: RNA 1 (canonical theophylline aptamer) (RNA, aptamer) GGCGAUACCAGCCGAAAGGCCCUUGGCAGCGUC; assay: ITC; details: conditions as previously reported (cited)
[7] = system: RNA 10 (8-oxoG at G25) (RNA, aptamer, 7,8-dihydro-8-oxoguanosine at 25) GGCGAUACCAGCCGAAAGGCCCUUGGCAGCGUC; assay: MST binding check; details: Na+ 150 mM (NaCl); TBS: 50 mM Tris-HCl pH 7.5; 10 nM RNA; up to 11.25 mM
[8] = TBS pH 7.5, up to 5% DMSO, up to 1 mM
[9] = TBS: 50 mM Tris-HCl pH 7.5, up to 11.25 mM

binding [1, 8]	binding [2, 8]	Kd [3]	binding [4, 8]	Kd [5]	Kd ([6]; mean of two runs, 0.72 and 1.98 μM)	binding [2, 9]	binding [1, 9]	binding [7]	binding ([6]; printed Kd = NA)	binding [4, 9]	SMILES
no	no	> 160 µM	no	–	–	–	–	–	–	–	Cn1cnc2c1c(=O)[nH]c(=O)n2C
–	–	–	–	29 ± 35 µM	1.35 µM	no	–	–	–	–	Cn1c(=O)c2[nH]cnc2n(C)c1=O
–	–	–	–	–	–	no	no	no	no	no	Cn1c(=O)c2c(ncn2C)n(C)c1=O
